Data set [1] in a line: Oral bioavailability in rat at 10 mg/kg. The class given is ADME, organism-based. To be noted: in vivo.
Data set [2] in a line: Volume of distribution at steady state in rat at 2 mg/kg, iv and 10 mg/kg, po. The settings on record: in vivo, read-out: Vdss.
Data set [3] can be described thus: AUClast in rat at 2 mg/kg, iv and 10 mg/kg, po. The settings on record: plasma.
Data set [4] in a line: Clearance in rat at 2 mg/kg, iv and 10 mg/kg, po. To be noted: in vivo.

Molecules are shown by their SMILES.

We go through two molecules from ChEMBL document CHEMBL2311284, “A novel series of N-(azetidin-3-yl)-2-(heteroarylamino)acetamide CCR2 antagonists” (Bioorg Med Chem Lett, 2013).

By bioavailability is commonly meant dose-corrected exposure relative to a reference, in per cent. A low value points to poor availability. By AUC(0-t) is commonly meant exposure summed from dosing to a finite time, without extrapolation to infinity. Read a low AUC(0-t) as low exposure.

`O=C(CNc1ncnc2ccc(C(F)(F)F)cc12)NC1CN([C@H]2CC[C@@](O)(c3cncs3)CC2)C1`: the bioavailability in data set [1] worked out at 0.3%. Further, the Vd in data set [2] came to 8.5 L/kg. In data set [3], this molecule yielded an exposure AUC(0-t) of 10.6 ng·h/mL. The same molecule displayed a clearance in data set [4] of 89 mL/min/kg.
Taken in the same sequence, the figures for `N#Cc1cc(NCC(=O)NC2CN([C@H]3CC[C@@](O)(c4cncs4)CC3)C2)c2cc(C(F)(F)F)ccc2n1` were 0.5%, 13 L/kg, 6 ng·h/mL and 148 mL/min/kg.
